{"source": "patent US20240041034A1", "about": "“ANTIMICROBIAL COMPOSITION COMPRISING A DIOCTYLDIMETHYLAMMONIUM COMPOUND” (The Procter & Gamble Company, priority 2022, published 2024)", "origin": "cited, not measured here", "settings": "in water, in the absence of surfactant", "data": [{"smiles": "CCCCCCCC[N+](C)(C)CCCCCCCC.[Cl-]", "note": "[DODMAC, dioctyldimethylammonium chloride]", "values": [{"measurement": "Critical Micelle Concentration (CMC)", "value": "~5000", "unit": "ppm"}]}]}
